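Interpolation was linear, between the two tested concentrations surrounding the appropriate level; five concentrations were tested over 48 hours in 96-well plates. GI50 = concentration required for 50% inhibition of growth. At the TGI there is no net growth.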

The assay deals with MDA-MB-468 breast. As to the kind of experiment: NCI-60 cell line screen, 48 h.
In the case of `Cc1cc(NCCCCNc2ccnc3cc(Cl)ccc23)nc(Nc2ccc(C(=O)N3CCCC3)cc2)n1`, the GI50 is 1820 nM and the TGI was 4.04 µM.
Regarding `Cc1ccc(NSc2ccccc2[N+](=O)[O-])cc1`, the GI50 was 570 nM and the TGI was 16.3 µM.
As for `O=C(CC(O)c1ccncc1)c1ccccc1` (configuration not stated), the GI50 was 24300 nM and the TGI is above 100 µM.
In the case of `N#Cc1c(NC(=O)c2cccc3ccccc23)sc2c1CCCC2`, the GI50 is 154 nM and the TGI is above 7.22 µM.
The like results for `O=C1/C(=C/c2ccc(Cl)cc2)CN(Cc2cn(CCNc3ccnc4cc(Cl)ccc34)nn2)C/C1=C\c1ccc(Cl)cc1` were, in that order, 234 nM and 0.644 µM.
Take `CCCCCCCCCCCCCCCCOC(=O)c1c(C)[nH]c(/C=C2\N=C(c3ccc[nH]3)C=C2OC)c1C`: the GI50 is 1660 nM and the TGI was determined as 5.29 µM.
For `COc1ccc(Cn2cnc3cc(C(=O)Nc4cccc5ccccc45)ccc32)c(OC)c1`, the GI50 is 35.8 nM and the TGI came out at 2.42 µM.
For the molecule `O=C1CSC(=S)N1Cc1cccnc1`, the GI50 is 3820 nM and the TGI was found to be 17 µM.
As to `O=C1/C(=C/c2ccc([N+](=O)[O-])o2)Oc2ccccc21`, the GI50 was 1170 nM and the TGI amounted to 2.94 µM.
Consider `NC(N)=N/N=C(/c1ccccc1)c1ccc(Cl)cc1`, for which the GI50 is 2400 nM and the TGI worked out at 13 µM.
With `COc1cc(Nc2ncc3c(C)nc(-c4cccc(Oc5ccccc5)c4)n3n2)cc(OC)c1OC`, the GI50 is 2980 nM and the TGI amounted to 18.4 µM.
For `COc1cc(C2CC(c3ccc(Nc4ccnc5cc(Cl)ccc45)cc3)=NN2C=O)cc(OC)c1OC` (configuration not stated), the GI50 is 1830 nM and the TGI was found to be 4.38 µM.
Turning to `O=c1[nH]ccc2nc(-c3ccc(CN4CCC(c5nc(-c6ccccn6)n[nH]5)CC4)cc3)c(-c3ccccc3)cc12`, the GI50 is 88.7 nM and the TGI was found to be 7.14 µM.
On to `Cc1cc(O)ccc1O`, for which the GI50 is 13300 nM and the TGI came out at 27.3 µM.
Consider `CC(C)=CCc1ccc(O)c(=O)cc1C(C)C`, for which the GI50 is 868 nM and the TGI stood at 5.36 µM.
As for `CC1CC(C)/C(=N/NC(N)=O)C(C(O)CC2CCC(=O)NC2=O)C1` (configuration not stated), the GI50 is 9150 nM and the TGI is above 100 µM.
Consider `COc1cc(OC)c2cc(C(=O)O)c(=O)oc2c1`, for which the GI50 was above 100000 nM and the TGI was above 100 µM.
For `COc1ccc2c(c1)C(=O)/C(=C/c1ccc([N+](=O)[O-])s1)O2`, in that order: 291 nM and 1.36 µM.
Take `CS(=O)(=O)Nc1cccc(-c2ccc3c(NC(=O)C4CC4)n[nH]c3c2)c1`: the GI50 was 622 nM and the TGI stood at 24.8 µM.
The like results for `CCCCCCCCCCCCSC(=NC)NC` were, in that order, 1470 nM and 3.14 µM.
For `CCOCC(=O)N[C@H]1CCc2cc(OC(=O)COCC)c(OC)c(OC)c2-c2ccc(SC)c(=O)cc21`, in that order: 71.4 nM and above 100 µM.
Consider `COc1ccc2cc3[n+](cc2c1OC)CCc1cc2c(cc1-3)OCO2`, for which the GI50 was 675 nM and the TGI was 6.78 µM.
In the case of `CCC1=Cc2cc(OC)ccc2OC12C=Cc1cc(OC)ccc1O2` (configuration not stated), the GI50 was 436 nM and the TGI was above 100 µM.
For `CCN(CC)CCCNc1nc2ccccc2c2c(=O)c3cc(Cl)ccc3sc12`, the GI50 is 1590 nM and the TGI worked out at 4.85 µM.
As for `COc1ccc(/C(=N\O)c2cc(OC)c(OC)c(OC)c2)c(OC)c1N`, the GI50 was 3990 nM and the TGI is above 100 µM.
As to `Cn1ccnc1C(=O)/C=C/c1ccc(C(=O)Nc2ccccc2O)cc1`, the GI50 is 1600 nM and the TGI was determined as 3.67 µM.
Regarding `O=C(N/N=c1/ccoc2cccnc12)N1CCN(c2ncccn2)CC1`, the GI50 was below 10 nM and the TGI was determined as 1.34 µM.
With `Cc1ccc(/C=C/C(=O)c2ccc(N)cc2)c(C)c1`, the GI50 is 2410 nM and the TGI came out at 5.13 µM.
Turning to `O=c1oc2ccc(F)cc2c(=O)n1-c1ccc(Cl)cc1F`, the GI50 was 1510 nM and the TGI stood at 5.31 µM.
`O=C1Nc2ccccc2/C1=C/c1cn(C(=O)c2c(Cl)cccc2Cl)c2ccccc12`: the GI50 is 4520 nM and the TGI was found to be 20.1 µM.
With `O=C(Nc1ccc(Cl)cc1)c1ccc([N+](=O)[O-])o1`, the GI50 was 3080 nM and the TGI amounted to 14.9 µM.
For `COc1cc2c(cc1OCCCCCn1c(-c3ccco3)nc3ccccc31)N=C[C@@H]1CCCN1C2=O`, in that order: below 10 nM and below 0.01 µM.
The like results for `COc1cc(C(=O)/C=C/c2c(-c3ccc(F)cc3)nc3ncccn23)cc(OC)c1OC` were, in that order, 2750 nM and 6.89 µM.
Regarding `COc1ccc(N(C)c2nc(Cl)nc3ccn(C)c23)cc1`, the GI50 is below 10 nM and the TGI was above 100 µM.
`CC(=O)Nc1ccc2c(c1)C(=O)c1cccc(F)c1-2`: the GI50 is 15200 nM and the TGI is 45.8 µM.
For `COc1ccc(Cn2cc3c(c2-c2ccc(O)cc2)CCc2cnoc2-3)cc1`, the GI50 is 245 nM and the TGI came out at 1.25 µM.
Regarding `O=C(Nc1cccc([N+](=O)[O-])c1)c1ccc2ccccc2c1O`, the GI50 is 3380 nM and the TGI was determined as 71.3 µM.
On to `O=C(Nc1cccnc1)c1cccc([N+](=O)[O-])c1`, for which the GI50 is above 100000 nM and the TGI is above 100 µM.
As to `O=C(NCC(=O)N1CC[C@H](NC2CCC(O)(c3ccc(-c4ncccn4)cn3)CC2)C1)c1cccc(C(F)(F)F)c1` (some centres not stated), the GI50 is 19600 nM and the TGI turned out to be 95.4 µM.
As for `CC1(C)N=C(N)N=C(N)N1c1ccc(OCC(=O)N2CCOCC2)c(Cl)c1`, the GI50 is 1230 nM and the TGI was above 100 µM.
On to `C=C(C)[C@@H]1CC[C@]2(C(=O)O)CC[C@]3(C)[C@H](CC[C@@H]4[C@@]5(C)C[C@@H](CC#Cc6ccc(Br)cc6)C(=O)C(C)(C)[C@@H]5CC[C@]43C)[C@@H]12`, for which the GI50 is 7250 nM and the TGI was 33.5 µM.

For the origin of these results see PubChem BioAssay (NCI).
